The values below are quoted from earlier work in US20240398698A1, “CONAZOLANTIFUNGAL KETOE IN SOLUTION OR SUSPENSION FOR USE IN THE HUMAN EAR” (priority 2023, published 2024).

Take `CC(=O)N1CCN(c2ccc(OCC3COC(Cn4ccnc4)(c4ccc(Cl)cc4Cl)O3)cc2)CC1` (stereo not drawn) [Ketoconazole, ketoconazole]: where the note is “acetic acid”, the “solubility in acetic acid” value was “not soluble”. Also, for the setting “alcohol”, the solubility in alcohol result is “soluble”. Further, for the setting “water”, the solubility in water result was “poorly soluble”.
